Our source for the inhibition, Activity and EC50 values is ChEMBL document CHEMBL4732064, “Structure-activity relationship studies of phenothiazine derivatives as a new class of ferroptosis inhibitors together with the therapeutic effect in an ischemic stroke model” (Eur J Med Chem, 2021).

Calls of active or inactive are those of the source. The rule behind the calls is not given here.

One assay has as its system HT-1080. The experiment in a line: Inhibition of rotenone-induced oxidative cell death in human HT-1080 cells at 10 uM incubated for 24 hrs. The class given is functional, cell-based.
Conditions: not given
Turning to `CCOC(=O)c1ccc(NC2CCCCC2)c(N)c1`, the inhibition result was “inactive”.

A further assay concerns HT-1080. Kind of assay: Inhibition of H2O2-induced oxidative cell death in human HT-1080 cells at 10 uM incubated for 24 hrs. Format: functional, cell-based.
Conditions: not given
For the molecule `CCOC(=O)c1ccc(NC2CCCCC2)c(N)c1`, the result was inactive.

The test system of a further assay is HT-1080. Kind of assay: Inhibition of erastin-induced ferroptosis in human HT-1080 cells assessed as cell viability incubated for 48 hrs by MTT assay. The class given is functional, cell-based. To be noted: HT-1080, 48 h. In general terms: Tetrazolium assays rely on reduction of a dye to a coloured formazan, in cell work by metabolically active cells.
Consider `CC(c1ccccc1)c1ccc2c(c1)Nc1ccccc1S2` (configuration not stated), for which the EC50 – broadly, the midpoint of the concentration-response curve – was found to be 4 nM.
Still for that read-out and setting: under `CC(c1cccc(O)c1)c1ccc2c(c1)Nc1ccccc1S2` (configuration not stated) stands 5 nM; under `COC(=O)c1ccc(C(C)c2ccc3c(c2)Nc2ccccc2S3)cc1Cl` (configuration not stated), 21 nM.
The same measure, in the same setting: under `CC(c1ccc(C(C)(C)C)cc1)c1ccc2c(c1)Nc1ccccc1S2` (configuration not stated) stands 73 nM; under `CCN1CCN(S(=O)(=O)C(C)c2ccc3c(c2)Nc2ccccc2S3)CC1` (configuration not stated), 32 nM; under `COc1ccc2c(c1)Nc1ccccc1S2`, 1750 nM.
As for `O=C(CN1CCCC1)N1c2ccccc2Sc2ccccc21`, the EC50 is 1130 nM.
Still for that read-out and setting: under `COc1cc(C(C)c2ccc3c(c2)Nc2ccccc2S3)ccc1F` (configuration not stated) stands 25 nM; under `CCOc1ccccc1C(=O)N/N=C(\C)c1ccc2c(c1)Nc1ccccc1S2`, 18 nM; under `CC(c1ccc(F)c(Cl)c1)c1ccc2c(c1)Nc1ccccc1S2` (configuration not stated), 5 nM.
Same read-out and setting: under `CC(C)c1cccc(C(C)c2ccc3c(c2)Nc2ccccc2S3)c1` (configuration not stated) stands 12 nM; under `CC1CCN(CC(=O)N2c3ccccc3Sc3ccccc32)CC1`, 2760 nM; under `CC(c1ccc(Cl)c(F)c1)c1ccc2c(c1)Nc1ccccc1S2` (configuration not stated), 19 nM.
Same read-out and setting: as for `CCc1ccc(C(C)c2ccc3c(c2)Nc2ccccc2S3)cc1` (configuration not stated), the figure is 20 nM; as for `CCc1cccc(C(C)c2ccc3c(c2)Nc2ccccc2S3)c1` (configuration not stated), 18 nM.
For the molecule `C/C(=N\NC(=O)c1cccnc1)c1ccc2c(c1)Nc1ccccc1S2`, the concentration giving a half-maximal response (EC50) came to 71 nM.
With `CC(=O)c1ccccc1NC(=O)COC(=O)CCN1c2ccccc2Sc2ccccc21`, the EC50 is over 10000 nM.
Still for that read-out and setting: under `CC(c1ccc(C(F)(F)F)c(Cl)c1)c1ccc2c(c1)Nc1ccccc1S2` (configuration not stated) stands 17 nM.
Consider `Cc1ccc(SCC(=O)N2c3ccccc3Sc3ccccc32)cc1`, for which the EC50 was over 10000 nM.
On the same count and under the same terms, under `Cc1cc(Cl)cc(C(C)c2ccc3c(c2)Nc2ccccc2S3)c1` (configuration not stated) stands 24 nM; under `CCOc1cccc(C(C)c2ccc3c(c2)Nc2ccccc2S3)c1` (configuration not stated), 14 nM.
The same measure, in the same setting: under `C/C(=N\NC(=O)c1ccccc1C)c1ccc2c(c1)Nc1ccccc1S2` stands 5 nM; under `CC(C)Cc1ccc(C(C)c2ccc3c(c2)Nc2ccccc2S3)cc1` (configuration not stated), 9 nM; under `FC(F)(F)c1ccc2c(c1)Nc1ccccc1S2`, 47 nM.
Consider `CCCN1c2ccccc2Sc2ccccc21`, for which the EC50 was over 10000 nM.
Regarding `CC(c1cccc(Cl)c1)c1ccc2c(c1)Nc1ccccc1S2` (configuration not stated), the half-maximal effective concentration (EC50) is 5 nM.
On the same count and under the same terms, as for `COc1ccc(OCC(=O)N2c3ccccc3Sc3ccccc32)cc1`, the figure is 145 nM.
Still for that read-out and setting: under `CC(=O)c1cccc(NC(=O)CCN2c3ccccc3Sc3ccccc32)c1` stands 4300 nM; under `CCCCc1ccc(C(C)c2ccc3c(c2)Nc2ccccc2S3)cc1` (configuration not stated), 64 nM.
Regarding `CCN(CC)CC(O)CN1c2ccccc2Sc2ccccc21` (configuration not stated), the EC50 worked out at 4420 nM.
`CC(CN1c2ccccc2Sc2ccccc21)N(C)C` (configuration not stated) [PROMETHAZINE]: the 50% effective concentration (EC50) is 264 nM.
Same read-out and setting: as for `C/C(=N\NS(=O)(=O)c1ccc(C)cc1)c1ccc2c(c1)Nc1ccccc1S2`, the figure is 28 nM; as for `CC(c1ccc2c(c1)Nc1ccccc1S2)c1ccc(F)c(OCc2ccccc2)c1` (configuration not stated), 35 nM.
On to `CCCCC(CC)CN1c2ccccc2Sc2ccccc21` (configuration not stated), for which the EC50 is over 10000 nM.
As to `CC(=O)N1c2ccccc2Sc2ccccc21`, the EC50 is 1150 nM.
As to `CC(c1cccc(N2CCN(C)CC2)c1)c1ccc2c(c1)Nc1ccccc1S2` (configuration not stated), the EC50 worked out at 9 nM.
In the case of `CC(c1ccc(F)cc1)c1ccc2c(c1)Nc1ccccc1S2` (configuration not stated), the 50% effective concentration (EC50) was 6 nM.
The same measure, in the same setting: under `Cc1cnc(SCC(=O)N2c3ccccc3Sc3ccccc32)nc1` stands over 10000 nM; under `COc1cc(OC)cc(C(C)c2ccc3c(c2)Nc2ccccc2S3)c1` (configuration not stated), 13 nM.
Same read-out and setting: under `CC(OC(=O)CCN1c2ccccc2Sc2ccccc21)c1ccc(F)cc1` (configuration not stated) stands over 10000 nM; under `c1ccc(Cc2ccc3c(c2)Nc2ccccc2S3)cc1`, 17 nM; under `CC(C)N1CCN(S(=O)(=O)C(C)c2ccc3c(c2)Nc2ccccc2S3)CC1` (configuration not stated), 25 nM.
As to `COc1ccc(C(C)c2ccc3c(c2)Nc2ccccc2S3)cc1OC` (configuration not stated), the EC50 was 7 nM.
`CC(c1ccc2c(c1)Nc1ccccc1S2)S(=O)(=O)N1CCOCC1` (configuration not stated): the concentration giving a half-maximal response (EC50) was 67 nM.
On to `CCOc1ccc(C(C)c2ccc3c(c2)Nc2ccccc2S3)cc1` (configuration not stated), for which the EC50 was found to be 17 nM.
Take `CC(c1ccc(NC(=O)OC(C)(C)C)cc1)c1ccc2c(c1)Nc1ccccc1S2` (configuration not stated): the 50% effective concentration (EC50) was 39 nM.
`CC(c1ccc(C(F)(F)F)cc1)c1ccc2c(c1)Nc1ccccc1S2` (configuration not stated): the EC50 was 6 nM.
The same measure, in the same setting: as for `CC(c1cccc(N2CCOCC2)c1)c1ccc2c(c1)Nc1ccccc1S2` (configuration not stated), the figure is 14 nM; as for `CCOC(=O)c1cc(F)cc(C(C)c2ccc3c(c2)Nc2ccccc2S3)c1` (configuration not stated), 30 nM.
Still for that read-out and setting: as for `C/C(=N\NC(=O)c1ccccn1)c1ccc2c(c1)Nc1ccccc1S2`, the figure is 65 nM; as for `CC(c1ccc2c(c1)Nc1ccccc1S2)S(=O)(=O)N1CCN(c2ccc(F)cc2F)CC1` (configuration not stated), 80 nM; as for `N#Cc1ccc2c(c1)Nc1ccccc1S2`, 209 nM.
As to `CC(c1ccc(C#N)cc1)c1ccc2c(c1)Nc1ccccc1S2` (configuration not stated), the concentration for a half-maximal effect (EC50) came to 6 nM.
As for `CC(c1cccc(OCc2ccccc2)c1)c1ccc2c(c1)Nc1ccccc1S2` (configuration not stated), the EC50 amounted to 25 nM.
Same read-out and setting: under `COc1cccc(N2CCN(S(=O)(=O)C(C)c3ccc4c(c3)Nc3ccccc3S4)CC2)c1` (configuration not stated) stands 57 nM.
With `COc1cc(C(C)c2ccc3c(c2)Nc2ccccc2S3)ccc1Cl` (configuration not stated), the EC50 is 22 nM.
Same read-out and setting: under `Cc1ccc(C)c(NC(=O)CN(C)C(=O)CCN2c3ccccc3Sc3ccccc32)c1` stands 5240 nM.
With `CC(C)Oc1ccc(C(C)c2ccc3c(c2)Nc2ccccc2S3)cc1` (configuration not stated), the EC50 stood at 17 nM.
Turning to `CCCOc1ccc(C(C)c2ccc3c(c2)Nc2ccccc2S3)cc1` (configuration not stated), the EC50 came to 62 nM.
Same read-out and setting: as for `CC(c1cccc(NC(=O)OC(C)(C)C)c1)c1ccc2c(c1)Nc1ccccc1S2` (configuration not stated), the figure is 52 nM; as for `CC(c1cccc(C(=O)OC(C)(C)C)c1)c1ccc2c(c1)Nc1ccccc1S2` (configuration not stated), 17 nM.
On the same count and under the same terms, under `COc1ccccc1C(=O)N1c2ccccc2Sc2ccccc21` stands over 10000 nM.
Take `COc1cc(C(C)c2ccc3c(c2)Nc2ccccc2S3)ccc1C` (configuration not stated): the concentration giving a half-maximal response (EC50) turned out to be 22 nM.
Turning to `O=C(c1ccncc1)N1c2ccccc2Sc2ccccc21`, the half-maximal effective concentration (EC50) is 4470 nM.
`CC(c1ccc2c(c1)Nc1ccccc1S2)S(=O)(=O)N1CCSCC1` (configuration not stated): the EC50 was found to be 78 nM.
Turning to `CC(c1cccc(F)c1)c1ccc2c(c1)Nc1ccccc1S2` (configuration not stated), the EC50 is 6 nM.
The same measure, in the same setting: as for `CC(OC(=O)c1ccccc1)c1ccc2c(c1)Nc1ccccc1S2` (configuration not stated), the figure is 13 nM; as for `CC(=NNC(=O)c1ccco1)c1ccc2c(c1)Nc1ccccc1S2`, 17 nM; as for `OCc1ccc2c(c1)Nc1ccccc1S2`, 63 nM.
Take `CCOC(=O)c1ccc(NC2CCCCC2)c(N)c1`: the EC50 came out at 88 nM.
Same read-out and setting: as for `CC(NC(=O)CCN1c2ccccc2Sc2ccccc21)C1CC1` (configuration not stated), the figure is 4040 nM; as for `CC(c1cccc(C#N)c1)c1ccc2c(c1)Nc1ccccc1S2` (configuration not stated), 15 nM; as for `Cc1cccc(C(C)c2ccc3c(c2)Nc2ccccc2S3)c1` (configuration not stated), 5 nM.
Take `CC(c1ccc(N2CCOCC2)cc1)c1ccc2c(c1)Nc1ccccc1S2` (configuration not stated): the EC50 stood at 13 nM.
Take `CC(C)c1ccc(C(C)c2ccc3c(c2)Nc2ccccc2S3)cc1` (configuration not stated): the EC50 is 6 nM.
Take `CC(c1ccc2c(c1)Nc1ccccc1S2)S(=O)(=O)N1CCN(S(C)(=O)=O)CC1` (configuration not stated): the EC50 amounted to 35 nM.
Turning to `CC(c1ccc(Cl)c(Cl)c1)c1ccc2c(c1)Nc1ccccc1S2` (configuration not stated), the half-maximal effective concentration (EC50) stood at 16 nM.
On the same count and under the same terms, under `c1ccc2c(c1)Nc1ccccc1S2` [PHENOTHIAZINE] stands 49 nM; under `COCCNC(=O)N1c2ccccc2Sc2ccccc21`, over 10000 nM; under `O=Cc1ccc2c(c1)Nc1ccccc1S2`, 142 nM.
On the same count and under the same terms, as for `CC(c1ccc(Cl)cc1)c1ccc2c(c1)Nc1ccccc1S2` (configuration not stated), the figure is 16 nM; as for `CC(OC(=O)CCCN1C(=O)c2ccccc2C1=O)C(=O)N1c2ccccc2Sc2ccccc21` (configuration not stated), 439 nM; as for `CC(c1ccc2c(c1)Nc1ccccc1S2)S(=O)(=O)N1CCN(C)CC1` (configuration not stated), 34 nM.
As to `CC(C)Oc1cccc(C(C)c2ccc3c(c2)Nc2ccccc2S3)c1` (configuration not stated), the EC50 came to 15 nM.
The same measure, in the same setting: under `CC(=O)c1ccc2c(c1)Nc1ccccc1S2` stands 38 nM; under `CN1c2ccccc2Sc2ccccc21`, over 10000 nM; under `CS(=O)(=O)c1ccc2c(c1)Nc1ccccc1S2`, 195 nM.
Still for that read-out and setting: under `CC(c1cc(Cl)cc(Cl)c1)c1ccc2c(c1)Nc1ccccc1S2` (configuration not stated) stands 17 nM; under `CSc1ccc2c(c1)Nc1ccccc1S2`, 64 nM.
`COc1ccc(C(C)c2ccc3c(c2)Nc2ccccc2S3)cc1C` (configuration not stated): the half-maximal effective concentration (EC50) was found to be 19 nM.
The same measure, in the same setting: as for `CC(c1ccc(OCc2ccccc2)cc1)c1ccc2c(c1)Nc1ccccc1S2` (configuration not stated), the figure is 14 nM.
The same measure, in the same setting: under `Cc1cc(C(C)c2ccc3c(c2)Nc2ccccc2S3)ccc1OCc1ccccc1` (configuration not stated) stands 71 nM; under `O=C(CCN1c2ccccc2Sc2ccccc21)N1CCN(CCO)CC1`, over 10000 nM; under `Cc1cc(C)cc(C(C)c2ccc3c(c2)Nc2ccccc2S3)c1` (configuration not stated), 21 nM.
As for `CCc1ccc2c(c1)Nc1ccccc1S2`, the concentration giving a half-maximal response (EC50) was determined as 30 nM.
Regarding `CC(c1cc(F)cc(OCc2ccccc2)c1)c1ccc2c(c1)Nc1ccccc1S2` (configuration not stated), the EC50 is 60 nM.
The same measure, in the same setting: under `CC(c1ccc2c(c1)Nc1ccccc1S2)S(=O)(=O)N1CCN(c2ccc(F)cc2)CC1` (configuration not stated) stands 80 nM.

A further assay has as its system HT-29. The experiment in a line: Protection against TNFalpha/Smac-mimetic/Z-VAD-FMK-induced necroptosis in human HT-29 cells assessed as cell viability at 10 uM. The class given is functional, cell-based.
Conditions: not given
Consider `CCOC(=O)c1ccc(NC2CCCCC2)c(N)c1`, for which the result was inactive.
`CN1C(=O)C(Cc2c[nH]c3ccccc23)NC1=S` (configuration not stated): the result was Active.

The subject of another assay is THP-1. The experiment in a line: Protection against nigericin-induced pyroptosis in human THP-1 cells assessed as cell viability at 10 uM. Format: functional, cell-based.
Conditions: not given
For the molecule `CC(C)(O)c1coc(S(=O)(=O)NC(=O)Nc2c3c(cc4c2CCC4)CCC3)c1`, the outcome was Active.
